Data published in patent US20260226034A1 (The Rockefeller University, priority 2023, published 2026).

The compounds below were run against NSP14 (Severe acute respiratory syndrome coronavirus 2, UniProt P0DTD1) (assay: NSP14 MTase inhibition assay at 37° C. (MTase-Glo SAH detection)). Settings: 0.3 nM NSP14, 2.5 μM SAM, 2.5 μM GpppA RNA, 45 min at 37° C.; read-out: Nsp14 Mtase Inh. IC50.
Type: biochemical, SARS-CoV-2
Experimental: NSP14 MTase assay at 37° C. (0.3 nM NSP14 as final enzyme concentration)
The NSP14 MTase assay at 37° C. is carried out in 384-well flat bottom polystyrene microplates (Greiner, 781075). Per well, 10 μl of 1×NSP14 reaction buffer (50 mM Tris-HCl, pH 7.5, 6 mM KCl, 1.25 mM MgCl2, 1 mM DTT, and 0.01% Tween-20) are dispensed in columns 1-23 using a Thermo Multidrop Combi dispenser (Thermo Scientific). 0.1 μl of serially diluted compounds in DMSO are dispensed into columns 1-22 of the assay microplates with a Janus 384 MDT NanoHead (PerkinElmer). In wells of column 23, which serve as negative controls, no compounds are added.
The NSP14 reaction is started by adding 4 μl of a 4× substrate solution containing S-adenosyl methionine (SAM, 10 μM) and GpppA RNA (10 μM) prepared in 1×NSP14 reaction buffer. Any addition of reagents is followed by a 30 second centrifugation at 500×g to ensure that all liquid was collected at the bottom of the well. The final concentrations of NSP14, SAM, and GpppA RNA are 0.3 nM, 2.5 μM, and 2.5 μM, respectively. The final reaction volume is 16 μl. Plates are sealed and incubated for 45 min at 37° C.
For SAH detection, 1 μl 5× MTase-Glo™ Reagent (Promega) is added to each well, plates are mixed for 1-2 minutes and incubated at room temperature for 30 minutes. 5 μl of room-temperature MTase-Glo™ Detection Solution (Promega) is added to each well, plates are mixed for 1-2 minutes and incubated at room temperature for 30 minutes. Luminescence signals of each well are recorded in relative light units (RLUs) using a Biotek Synergy Neo plate reader (BioTek, Winooski, VT). The SAH production is normalized against the positive control (PK, column 24) and negative control (NK, column 23) as follows: normalized % inhibition=100×(RLUsample-RLUaverageNK)/(RLUaveragePK-RLUaverageNK).
In the case of `Cc1c(S(=O)(=O)c2ccc(=O)n(C)c2)cc(C(=O)NCc2cccc3cnn(C)c23)n1C` [A.15], the IC50 is reported as 13.4 nM.
In the case of `Cc1c(S(=O)(=NCCO)c2ccc3[nH]ncc3c2)cc(C(=O)N[C@@H]2CCN(c3ncc(F)cn3)C2)n1C` (some centres unmarked) [A.102], the IC50 is reported as 0.46 nM.
With `Cc1c(S(=O)(=O)c2ccc3[nH]ncc3c2)cc(C(=O)N[C@H]2CCN(c3ncc(F)cn3)C2)n1C` [A.47] the IC50 was 2.2 nM.
Compound `Cc1c(S(=O)(=O)c2ccc3[nH]ncc3c2)cc(C(=O)N[C@@H]2CCN(Cc3ccc(C#N)cn3)C2)n1C` [A.105] has an IC50 of 14 nM.
In the case of `Cc1c(S(=O)(=O)c2ccc3[nH]ncc3c2)cc(C(=O)N[C@@H]2CCN(c3nccc(C(F)(F)F)n3)C2)n1C` [A.66], the IC50 is reported as 0.81 nM.
Compound `Cc1c(S(=O)(=O)c2ccccc2)cc(C(=O)NCc2cccc3cnn(C)c23)n1C` [A.16] has an IC50 of 15 nM.
`Cc1c(S(=O)(=O)c2ccc3[nH]ncc3c2)cc(C(=O)N[C@@H]2CCN(c3ncc(F)cn3)C2)n1CCO` [A.90] gave an IC50 of less than 0.15 nM.
`Cc1c(S(=O)(=O)c2cc(Cl)c3[nH]ncc3c2)cc(C(=O)N[C@@H]2CCN(c3ncc(F)cn3)C2)n1C` [A.41] gave an IC50 of less than 0.15 nM.
`Cc1c(S(=O)(=O)c2ccc3[nH]ncc3c2)cc(C(=O)N[C@@H]2CCN(c3cccc(C(F)(F)F)c3)C2)n1C` [A.100] was tested, and the IC50 was 2.9 nM.
Compound `Cc1c(S(=O)(=O)c2ccc3[nH]ncc3c2)cc(C(=O)N[C@@H]2CCN(c3cncnc3)C2)n1C` [A.73] has an IC50 of 0.41 nM.
`Cc1c(S(=O)(=O)c2ccc3[nH]ncc3c2)cc(C(=O)NC2CN(c3ncc(F)cn3)C[C@@H]2F)n1C` (some centres unmarked) [A.46] gave an IC50 of 0.77 nM.
Compound `O=C(N[C@@H]1CCN(c2ncc(F)cn2)C1)c1cc(S(=O)(=O)c2ccc3[nH]ncc3c2)c2n1CCC2` [A.68] has an IC50 of 0.36 nM.
`Cc1c(S(=O)(=O)c2ccc3[nH]ncc3c2)cc(C(=O)N[C@@H]2CCN(c3ccnnc3)C2)n1C` [A.78] showed an IC50 of 0.53 nM.
`Cc1c(S(=O)(=O)c2ccc3[nH]ncc3c2)cc(C(=O)N[C@@H]2CCN(c3cnn(C)c(=O)c3)C2)n1C` [A.111] gave an IC50 of less than 0.15 nM.
In the case of `Cc1c(S(=O)(=O)c2ccc3[nH]ncc3c2)cc(C(=O)N[C@@H]2CCN(c3ncccc3F)C2)n1C` [A.43], the IC50 is reported as 0.42 nM.
`Cc1c(S(=O)(=O)c2ccc3[nH]ncc3c2)cc(C(=O)N[C@@H]2CCN(c3ccc(F)cc3)C2)n1C` [A.81] showed an IC50 of 0.58 nM.
For `Cc1c(S(=O)(=O)c2ccc3[nH]ncc3c2)cc(C(=O)N[C@@H]2CCN(c3ccc(C(F)(F)F)cc3)C2)n1C` [A.123], the IC50 was 8.6 nM.
For `Cc1c(S(=O)(=O)c2ccc3[nH]ncc3c2)cc(C(=O)N[C@@H]2CCN(c3cnnc(Cl)c3)C2)n1C` [A.118], the IC50 was less than 0.15 nM.
`Cc1c(S(=O)(=NCC2CC2)c2ccc3[nH]ncc3c2)cc(C(=O)N[C@@H]2CCN(c3ncc(F)cn3)C2)n1C` (some centres unmarked) [A.69] gave an IC50 of 8.7 nM.
`Cc1c(S(=O)(=O)c2ccc3[nH]ncc3c2)cc(C(=O)NCc2c(F)ccc3occc23)n1C` [A.2] gave an IC50 of 0.32 nM.
`Cc1c(S(=O)(=O)c2cc(C#N)c3[nH]ncc3c2)cc(C(=O)N[C@@H]2CCN(c3ncc(F)cn3)C2)n1C` [A.63] showed an IC50 of 0.46 nM.
For `Cc1c(S(=O)(=O)c2ccc3[nH]ncc3c2)cc(C(=O)N[C@@H]2CCN(c3cc(F)cc(F)c3)C2)n1C` [A.96], the IC50 was 0.85 nM.

Same assay, conditions: 37° C., 0.3 nM NSP14, 2.5 μM SAM, 2.5 μM GpppA RNA; read-out: Nsp14 Mtase Inh. IC50
In the case of `Cc1c(S(=O)(=O)c2ccc3[nH]ncc3c2)cc(C(=O)NCc2nccc3cnn(C)c23)n1C` [B.24], the IC50 is reported as 0.62 nM.
`COc1ccc(CNC(=O)c2cc(S(=O)(=O)c3ccc4[nH]nc(F)c4c3)c(C)n2C)c(C(F)(F)F)n1` [B.176] gave an IC50 of 7 nM.
For `Cc1c(S(=O)(=O)c2ccc3[nH]ncc3c2)cc(C(=O)NCc2nccc3ncn(C4CC4)c23)n1C` [B.117], the IC50 was 0.18 nM.
For `Cc1c(S(=O)(=O)c2cc(C(F)F)c3[nH]ncc3c2)cc(C(=O)NCc2cccc3cnn(C4CC4)c23)n1C` [B.60], the IC50 was 5.3 nM.
Compound `Cc1c(S(=O)(=O)c2ccc3[nH]ncc3c2)cc(C(=O)N[C@H]2CCc3c(F)ccc(F)c32)n1C` (single isomer, unassigned) [B.140] has an IC50 of 0.31 nM.
Compound `Cc1c(S(=O)(=O)c2ccc3[nH]ncc3c2)cc(C(=O)NCc2cnc3ccccn23)n1C` [B.138] has an IC50 of 6.3 nM.
In the case of `Cc1c(S(=O)(=O)c2cc(C#N)c3[nH]ncc3c2)cc(C(=O)NCc2cccc3cnn(C4CC4)c23)n1C` [B.106], the IC50 is reported as 0.32 nM.
In the case of `Cc1c(S(=O)(=O)c2ccc3[nH]ncc3c2)cc(C(=O)NCc2c[nH]c(=O)c3cnn(C)c23)n1C` [B.115], the IC50 is reported as 0.17 nM.
`Cn1ncc(Cl)c1CNC(=O)c1cc(S(=O)(=O)c2ccc3[nH]ncc3c2)c2n1CCC2` [B.191] gave an IC50 of 8.6 nM.
In the case of `Cc1cc(CNC(=O)c2cc(S(=O)(=O)c3ccc4[nH]ncc4c3)c(C)n2C)n(C)n1` [B.147], the IC50 is reported as 145 nM.
In the case of `Cc1c(S(=O)(=O)c2ccc3[nH]ncc3c2)cc(C(=O)NCc2c[nH]c(=O)c3cnccc23)n1C` [B.130], the IC50 is reported as less than 0.15 nM.
`Cc1c(S(=O)(=O)c2ccc3[nH]ncc3c2)cc(C(=O)NCCN(C)c2ncc(F)cn2)n1C` [B.198] gave an IC50 of 16 nM.
`Cc1c(S(=O)(=O)c2cccc(C#N)c2)cc(C(=O)NCc2cccc3ncn(C)c23)n1C` [B.4] was tested, and the IC50 was 4.9 nM.
With `Cc1c(S(=O)(=O)c2ccc3[nH]ncc3c2)cc(C(=O)NCc2ccn(C3CC3)n2)n1C` [B.168] the IC50 was 172 nM.
`Cc1c(S(=O)(=O)c2ccc3[nH]ncc3c2)cc(C(=O)NCc2cccc3c2N(C)C(=O)C32CC2)n1C` [B.32] showed an IC50 of 0.18 nM.
For `Cc1c(S(=O)(=O)c2cc(Cl)c3[nH]ncc3c2)cc(C(=O)NCc2c(F)ccc3nnn(C4CC4)c23)n1C` [B.153], the IC50 was less than 0.15 nM.
`Cc1c(S(=O)(=O)c2ccc3[nH]ncc3c2)cc(C(=O)NCc2c(F)cc(F)c3cnn(C)c23)n1C` [B.69] showed an IC50 of less than 0.15 nM.
`COCc1cc(S(=O)(=O)c2cc(C(=O)NCc3cccc4cnn(C5CC5)c34)n(C)c2C)cc2cn[nH]c12` [B.93] gave an IC50 of 68 nM.
`Cc1c(S(=O)(=O)c2cc3cn[nH]c3cn2)cc(C(=O)NCc2cccc3cnn(C4CC4)c23)n1C` [B.42] gave an IC50 of 9.3 nM.
In the case of `Cc1c(S(=O)(=O)c2ccc3[nH]ncc3c2)cc(C(=O)NCc2c(F)ccc3c2CCCO3)n1C` [B.57], the IC50 is reported as less than 0.15 nM.
`Cc1c(S(=O)(=O)c2cccc(C#N)c2)cc(C(=O)NCc2cccc3cnn(C4CC4)c23)n1C` [B.14] showed an IC50 of 23.1 nM.
Work on `Cc1c(S(=O)(=O)c2ccc3[nH]ncc3c2)cc(C(=O)NCc2cccc3ncn(C4CC4)c23)n1C` [B.1] yielded an IC50 of 0.38 nM.
For `O=C(NCc1c(F)ccc2ncn(C3CC3)c12)c1cc(S(=O)(=O)c2cc(F)c3[nH]ncc3c2)c2n1CCC2` [B.90], the IC50 was 0.21 nM.
With `Cc1c(S(=O)(=O)c2ccc3[nH]ncc3c2)cc(C(=O)NCc2c(F)cc(F)cc2F)n1C` [B.86] the IC50 was 0.41 nM.
`Cc1c(S(=O)(=O)c2ccc3c(cnn3C)c2)cc(C(=O)NCc2c(F)ccnc2N2CCC(C(=O)NS(C)(=O)=O)C2)n1C` (centres unmarked) [B.182] gave an IC50 of less than 0.15 nM.
In the case of `Cc1c(S(=O)(=O)c2ccc3[nH]ncc3c2)cc(C(=O)NCc2ccc3ncnn3c2)n1C` [B.149], the IC50 is reported as 18 nM.
With `Cc1c(S(=O)(=O)c2cc(F)c3[nH]ncc3c2)cc(C(=O)NCc2cccc3cnn(C)c23)n1C` [B.9] the IC50 was 0.53 nM.
`Cc1c(S(=O)(=O)c2ccc3[nH]ncc3c2)cc(C(=O)NCC2(COc3ncc(F)cn3)CC2)n1C` [B.197] was tested, and the IC50 was 2.7 nM.
Work on `Cc1c(S(=O)(=O)c2cc(Cl)c3[nH]ncc3c2)cc(C(=O)NCc2ccnn2C)n1C` [B.134] yielded an IC50 of 0.18 nM.
Work on `Cc1c(S(=O)(=O)c2ccc3[nH]ncc3c2)cc(C(=O)NCc2cncc3cnn(C)c23)n1C` [B.49] yielded an IC50 of 0.49 nM.
`CN=S(=O)(NC(=O)c1cc(S(=O)(=O)c2ccc3[nH]ncc3c2)c(C)n1C)c1ccccc1` (racemic) [B.135, 4-(1H-indazol-5-ylsulfonyl)-1,5-dimethyl-N—(N-methyl-S-phenyl-sulfonimidoyl)pyrrole-2-carboxamide] gave an IC50 of 19 nM.
`Cc1c(S(=O)(=O)c2ccc3[nH]ncc3c2)cc(C(=O)NCc2c(Cl)cnn2C)n1CC(F)(F)F` [B.185] showed an IC50 of 3.9 nM.
`Cc1c(S(=O)(=O)c2ccc3[nH]ncc3c2)cc(C(=O)NCc2c(Cl)cc[nH]c2=O)n1C` [B.187] gave an IC50 of 0.61 nM.
`Cc1c(S(=O)(=O)c2ccc3[nH]ncc3c2)cc(C(=O)NCc2cccc3nnn(C)c23)n1C` [B.34] showed an IC50 of 0.2 nM.
With `Cc1c(S(=O)(=O)c2ccc3[nH]ncc3c2)cc(C(=O)NCc2ccc(N(C)C)nn2)n1C` [B.73] the IC50 was 116 nM.
In the case of `Cc1c(S(=O)(=O)c2ccc3[nH]ncc3c2)cc(C(=O)NCc2cccc(OCC(F)(F)F)c2)n1C` [B.77], the IC50 is reported as 2.9 nM.
With `Cc1c(S(=O)(=O)c2ccc3[nH]ncc3c2)cc(C(=O)NCc2ncccc2C(F)(F)F)n1C` [B.83] the IC50 was 5.3 nM.
Work on `Cc1c(S(=O)(=O)c2ccc3[nH]ncc3c2)cc(C(=O)NCc2cccc3c(F)nn(C)c23)n1C` [B.44] yielded an IC50 of 0.24 nM.
Compound `Cc1c(S(=O)(=O)c2ccc3[nH]nc(F)c3c2)cc(C(=O)NCc2c(F)ccc3ncn(C4CC4)c23)n1C` [B.103] has an IC50 of less than 0.15 nM.
Work on `Cc1c(S(=O)(=O)c2ccc3[nH]nc(F)c3c2)cc(C(=O)NCc2c[nH]c(=O)c3ccccc23)n1C` [B.95] yielded an IC50 of 2.2 nM.
